The NIST ThermoML archive (doi:10.1021/je049534w)
Several values for one entry are separate records, joined by “and”; a condition that tells them apart may be missing. Equal entries are not always repeated. Numbers after ± are expanded uncertainties.

Experiments:
[1] = Solid-liquid equilibrium temperature; conditions: Crystal, Speed of sound
[2] = Liquid, Linear variable-path acoustic interferometer

CCCCn1cc[n+](C)c1.F[P-](F)(F)(F)(F)F [1-butyl-3-methylimidazolium hexafluorophosphate]
[1]
Conditions	Solid-liquid equilibrium temperature [K]
100 kPa	285 ± 0.44
34000 kPa	291.15 ± 0.72
40200 kPa	293.15 ± 0.77
42500 kPa	294.16 ± 0.94
55000 kPa	296.15 ± 0.51
88900 kPa	303.15 ± 0.54

[2]
Conditions	speed of sound
283.16 K, 100 kPa	1455.5 ± 7.8 m/s and 1457.6 ± 7.8 m/s
283.16 K, 5088 kPa	1468.6 ± 7.8 m/s
283.16 K, 5131 kPa	1470.6 ± 7.8 m/s
283.16 K, 10263 kPa	1481.8 ± 7.9 m/s
283.16 K, 20249 kPa	1506.7 ± 8 m/s
283.16 K, 29954 kPa	1529.9 ± 8 m/s
283.16 K, 29995 kPa	1532.5 ± 8 m/s
283.16 K, 44961 kPa	1564.2 ± 8.1 m/s
283.16 K, 59682 kPa	1596.7 ± 8.2 m/s
283.16 K, 59829 kPa	1599.6 ± 8.3 m/s
283.16 K, 79904 kPa	1638.6 ± 8.4 m/s
283.16 K, 99077 kPa	1677.1 ± 8.5 m/s
283.16 K, 124179 kPa	1724.4 ± 8.7 m/s
283.16 K, 150925 kPa	1772.6 ± 8.8 m/s
291.15 K, 100 kPa	1440.2 ± 7.8 m/s
291.15 K, 5069 kPa	1453.3 ± 7.8 m/s
291.15 K, 10166 kPa	1466.6 ± 7.8 m/s
291.15 K, 20400 kPa	1492.4 ± 7.9 m/s
291.15 K, 30019 kPa	1515.7 ± 8 m/s
291.15 K, 44920 kPa	1550 ± 8.1 m/s
291.15 K, 59912 kPa	1583.2 ± 8.2 m/s
293.16 K, 100 kPa	1432.8 ± 7.7 m/s and 1431.6 ± 7.7 m/s
293.16 K, 5157 kPa	1446.5 ± 7.8 m/s
293.16 K, 10195 kPa	1459 ± 7.8 m/s
293.16 K, 20215 kPa	1484.2 ± 7.9 m/s
293.16 K, 29959 kPa	1507.9 ± 8 m/s
293.16 K, 44757 kPa	1542.2 ± 8.1 m/s
293.16 K, 59732 kPa	1574.7 ± 8.2 m/s
293.16 K, 78627 kPa	1613.8 ± 8.3 m/s
293.16 K, 99149 kPa	1654.5 ± 8.4 m/s
294.16 K, 5125 kPa	1444.5 ± 7.8 m/s
294.16 K, 10105 kPa	1457.2 ± 7.8 m/s
294.16 K, 20357 kPa	1483.2 ± 7.9 m/s
294.16 K, 29785 kPa	1506 ± 8 m/s
303.16 K, 100 kPa	1410.3 ± 7.7 m/s
303.16 K, 5078 kPa	1423.5 ± 7.7 m/s
303.16 K, 10204 kPa	1437.1 ± 7.7 m/s
303.16 K, 20225 kPa	1462.8 ± 7.8 m/s
303.16 K, 44714 kPa	1521.3 ± 8 m/s
303.16 K, 59773 kPa	1554.6 ± 8.1 m/s
303.16 K, 98921 kPa	1634.4 ± 8.4 m/s
313.16 K, 100 kPa	1389.5 ± 7.6 m/s
313.16 K, 5010 kPa	1402.8 ± 7.6 m/s
313.16 K, 10043 kPa	1416.4 ± 7.7 m/s
313.16 K, 20319 kPa	1443.3 ± 7.8 m/s
313.16 K, 41702 kPa	1495.1 ± 7.9 m/s
313.16 K, 44866 kPa	1502.9 ± 8 m/s
313.16 K, 59754 kPa	1536.3 ± 8.1 m/s
313.16 K, 79721 kPa	1578.6 ± 8.2 m/s
313.16 K, 99097 kPa	1617.4 ± 8.3 m/s
313.16 K, 125283 kPa	1662.2 ± 8.5 m/s
323.25 K, 100 kPa	1368 ± 7.5 m/s
323.25 K, 5061 kPa	1381.8 ± 7.6 m/s
323.25 K, 9942 kPa	1395.4 ± 7.6 m/s
323.25 K, 20234 kPa	1422.7 ± 7.7 m/s
323.25 K, 29721 kPa	1446.8 ± 7.8 m/s
323.25 K, 44935 kPa	1482.2 ± 7.9 m/s
323.25 K, 59711 kPa	1516 ± 8 m/s
323.25 K, 79553 kPa	1557.9 ± 8.1 m/s
323.25 K, 98901 kPa	1592.5 ± 8.2 m/s
